SMILES strings stand for the structures.

Sequence of human CB1 receptor (P21554 whole entry): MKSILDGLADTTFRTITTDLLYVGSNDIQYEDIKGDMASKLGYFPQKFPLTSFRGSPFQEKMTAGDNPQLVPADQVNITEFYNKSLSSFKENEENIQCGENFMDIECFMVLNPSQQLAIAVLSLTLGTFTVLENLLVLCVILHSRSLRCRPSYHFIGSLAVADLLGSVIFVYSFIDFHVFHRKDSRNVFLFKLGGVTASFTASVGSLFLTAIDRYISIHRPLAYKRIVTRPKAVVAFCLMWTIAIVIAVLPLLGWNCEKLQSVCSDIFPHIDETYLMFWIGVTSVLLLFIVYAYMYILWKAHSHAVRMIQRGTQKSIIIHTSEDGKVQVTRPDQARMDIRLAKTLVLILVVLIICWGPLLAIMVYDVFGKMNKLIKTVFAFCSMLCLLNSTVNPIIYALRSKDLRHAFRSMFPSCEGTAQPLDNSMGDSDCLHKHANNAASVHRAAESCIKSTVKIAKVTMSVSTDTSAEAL

The first test has as its target human CB1 receptor (Homo sapiens, UniProt P21554). The test is described as follows: Human CB1 receptor binding, [3H] CP-55,940 displacement on HEK cell membranes. Particulars: CB1 Ki. The arrangement: expressed in transfected cells; host or cells: HEK cells, doxycycline-induced; membrane preparation. The method, then:
The Human CB1 receptor binding affinity and other biological activities of the compounds of this invention are determined by the following procedures. Membrane preparation: Human Embryonic Kidney (HEK) Cells expressing the human CB1 receptor under transcriptional regulation of a tetracycline inducible promoter were grown in Dulbecco's Modified Essential Medium with sodium pyruvate (Invitrogen, Carlsbad, Calif.) containing 10% tetracycline free fetal bovine serum (Clonetech, Mountain View, Calif.) 100 μg/ml hygromycin (Calbiochem, San Diego, Calif.), 5 μg/ml blasticidin (Invitrogen). CB1 receptor expression was induced by addition of 1 μg/ml doxycycline (Calbiochem) and incubation for an additional 24 hours. Cells were released from flasks using Cell Dissociation Buffer (Invitrogen). Cells were pelleted by centrifugation at 500×G for 5 minutes. Membranes were prepared by resuspending cells in ice cold TEE Buffer (25 mM Tris pH 7.4, 5 mM EDTA, 5 mM EGTA, Complete Protease Inhibitor (Roche, Basel, Switzerland)). Cells were lysed with 12 strokes of a dounce homogenizer. Unlysed cells were pelleted by centrifugation at 500×G for 5 minutes. Membranes were pelleted by centrifugation at 25,000×G for 30 minutes. Membranes were resuspended in TEE, dounced 12 strokes, and pelleted a second time at 25,000×G for 30 minutes. Membrane pellet was resuspended in 50 mM Tris pH 7.4, 100 mM NaCl, 3 mM MgCl2, 0.2 mM EGTA, Complete Protease Inhibitor (Roche). Protein concentration was determined using the Micro-BCA Protein Assay Kit (Pierce, Rockford, Ill.) using BSA as a standard. Membranes were quick frozen and stored at −80 degrees Celsius until use.
Binding experiments: 50 μl of test compound was incubated with 50 μl of [^3H] CP-55,940 (Perkin Elmer, Boston, Mass.) (final concentration=[…]) and 150 μl of membrane homogenate (1 μg/well) in polypropylene 96-well plates (Corning, Acton, Mass.). Final reaction conditions were 50 mM Tris pH 7.4, 100 mM NaCl, 3 mM MgCl2, 0.2 mM EGTA, 0.04% BSA. Nonspecific binding was determined by incubation with 50 μM WIN-55, 212-2 (Tocris, Ellisville, Mo.). After incubation at room temperature for 60 minutes reactions were harvested by vacuum filtration through Unifilter GF/B-96 filters (Perkin Elmer) that had been presoaked in assay buffer containing 0.5% BSA (Sigma, St. Louis, Mo.) using a FilterMate Plate Harvester (Perkin Elmer). Filters were rinsed 4 times with 50 mM Tris pH 7.4, 0.025% Tween-20 and dried at 50 degrees Celsius for at least 30 minutes. 40 μl of Microscint-20 (Perkin Elmer) was added per well, and plates were counted using a Top-Count Microplate Scintillation Counter (Perkin Elmer). Binding data were analyzed and EC50 and K, values calculated using Graph Pad Prism 4.0 Software.
Consider `CN1CCN=C1CNC(=O)[C@@H](NC(=O)c1nn(Cc2ccc(F)cc2)c2ccccc12)C(C)(C)C` [Example 304], for which affinity was put at a Ki of 152 nM.
As to `CC(C)(C)[C@H](NC(=O)c1nn(Cc2ccc(F)cc2)c2ccccc12)C(=O)NC[C@@H](O)C(N)=O` [Example 314], the affinity, expressed as Ki, was 130 nM.
Still for that read-out and setting: then `CC(C)(C)[C@H](NC(=O)c1nn(Cc2ccc(C#N)cc2)c2ccccc12)C(=O)NCC1CNC(=O)O1` (stereo partly drawn) [Example 316], with 243 nM.
Same read-out and setting: then `CC(C)(C)[C@H](NC(=O)c1nn(Cc2ccc(F)cc2)c2ccccc12)C(=O)N1CCC[C@@H]1C(N)=O` [Example 319], with 45.8 nM.
Same read-out and setting: then `CC(C)(C)[C@H](NC(=O)c1nn(Cc2ccc(C#N)cc2)c2ccccc12)C(=O)N1CC(C(N)=O)C1` [Example 351], with 24.3 nM; and `CC(C)(C)[C@H](NC(=O)c1nn(Cc2ccc(C#N)cc2)c2cc(F)ccc12)C(=O)N1CC(C(N)=O)C1` [Example 353], with 72.8 nM.
In the case of `CC(C)(C)[C@H](NC(=O)c1nn(Cc2ccc(C#N)cc2)c2c(F)cccc12)C(=O)N[C@H]1C[C@H](O)C1` [Example 355], the affinity corresponds to a Ki of 52.9 nM.
Same read-out and setting: then `CC(C)(C)[C@H](NC(=O)c1nn(Cc2ccc(C#N)cc2)c2cc(F)ccc12)C(=O)N[C@H]1C[C@H](O)C1` [Example 356], with 32.6 nM; and `CC(C)(C)[C@H](NC(=O)c1nn(Cc2ccc(C#N)cc2F)c2c(F)c(F)ccc12)C(=O)NCC(N)=O` [Example 359], with 47.2 nM.
On the same count and under the same terms, then `CC(C)(C)[C@H](NC(=O)c1nn(Cc2ccc(C#N)cc2F)c2c(F)c(F)ccc12)C(=O)NC[C@@H](O)CO` [Example 360], with 73.5 nM; and `CC(C)(C)[C@H](NC(=O)c1nn(Cc2ccc(C#N)cc2F)c2c(F)c(F)ccc12)C(=O)NC[C@H](O)CO` [Example 361], with 41.6 nM; and `CC(C)(C)[C@H](NC(=O)c1nn(Cc2ccc(C#N)cc2F)c2c(F)c(F)ccc12)C(=O)NCCS(C)(=O)=O` [Example 362], with 125 nM.
With `CC(C)(C)[C@H](NC(=O)c1nn(Cc2ccc(C#N)cc2F)c2c(F)c(F)ccc12)C(=O)NCCS(N)(=O)=O` [Example 363], the Ki was found to be 57.8 nM.

The test is the same for the next values; noted with them: read-out: CB1 Ki.
Take `COc1cc(CNC(=O)[C@@H](NC(=O)c2nn(Cc3ccc(C#N)cc3)c3ccccc23)C(C)(C)C)on1` [Example 311]: the Ki was found to be 147 nM.
On the same count and under the same terms, then `COc1cc(CNC(=O)[C@@H](NC(=O)c2nn(Cc3ccc(C#N)cc3)c3c(F)cccc23)C(C)(C)C)on1` [Example 312], with 178 nM; and `COc1cc(CNC(=O)[C@@H](NC(=O)c2nn(Cc3ccc(C#N)cc3)c3cc(F)ccc23)C(C)(C)C)on1` [Example 313], with 273 nM; and `CCNC(=O)OC1CCCN(C(=O)[C@@H](NC(=O)c2nn(Cc3ccc(F)cc3)c3ccccc23)C(C)(C)C)C1` (stereo partly drawn) [Example 317], with 31.1 nM.
Still for that read-out and setting: then `CC(C)NC(=O)OC1CCCN(C(=O)[C@@H](NC(=O)c2nn(Cc3ccc(F)cc3)c3ccccc23)C(C)(C)C)C1` (stereo partly drawn) [Example 318], with 68.7 nM.
Consider `CCOC(=O)C1(F)CCN(C(=O)[C@@H](NC(=O)c2nn(Cc3ccc(F)cc3)c3ccccc23)C(C)(C)C)CC1` [Example 342], for which the Ki stood at 20.5 nM.
On the same count and under the same terms, then `CC(C)(C)[C@H](NC(=O)c1nn(Cc2ccc(F)cc2)c2ccccc12)C(=O)N1CCC(F)(C(N)=O)CC1` [Example 343], with 216 nM.
Still for that read-out and setting: then `CC(C)(C)[C@H](NC(=O)c1nn(Cc2ccc(F)cc2)c2ccccc12)C(=O)NCC1CN(C(N)=O)C1` [Example 347], with 24.4 nM; and `Cc1cc(O)nc(CNC(=O)[C@@H](NC(=O)c2nn(Cc3ccc(C#N)cc3)c3c(F)cccc23)C(C)(C)C)n1` [Example 349], with 101 nM; and `Cc1cc(O)nc(CNC(=O)[C@@H](NC(=O)c2nn(Cc3ccc(C#N)cc3)c3ccccc23)C(C)(C)C)n1` [Example 350], with 229 nM.
The same measure, in the same setting: then `Cc1nnc(CNC(=O)[C@@H](NC(=O)c2nn(Cc3ccc(C#N)cc3F)c3c(F)c(F)ccc23)C(C)(C)C)o1` [Example 364], with 20.9 nM.

Usually Ki stands for the dissociation constant of the complex between target and ligand, obtained from inhibition or displacement.

For the origin of these results see patent US20110028447A1, “INDAZOLE DERIVATIVES” (Pfizer Inc., priority 2008, published 2011).
